Values belong to the molecule of their own block, whether it stands above or below them. The source made the active and inactive calls. The calls are words filed in the database; no cut-off is given here.
Assays:
MOLT-4 [1] = assay: Cytotoxicity against Homo sapiens (human) MOLT4 cells by MTT assay; type: cell-based
U1 [2] = assay: Cytotoxicity against Homo sapiens (human) U1 cells by MTT assay in presence of TNF-alpha; type: cell-based
U1 [3] = assay: Cytotoxicity against Homo sapiens (human) U1 cells by MTT assay in presence of PMA; type: cell-based
[4] = biological target: Transcription factor p65 (Homo sapiens) (UniProt Q04206); assay: Inhibition of NF-kappa B p65 activity in TNFalpha-treated Homo sapiens (human) U1 cells at 10 uM after 2 to 4 hr by luciferase assay; type: cell-based
Transcription factor p65 (Homo sapiens), sequence (Q04206 whole entry): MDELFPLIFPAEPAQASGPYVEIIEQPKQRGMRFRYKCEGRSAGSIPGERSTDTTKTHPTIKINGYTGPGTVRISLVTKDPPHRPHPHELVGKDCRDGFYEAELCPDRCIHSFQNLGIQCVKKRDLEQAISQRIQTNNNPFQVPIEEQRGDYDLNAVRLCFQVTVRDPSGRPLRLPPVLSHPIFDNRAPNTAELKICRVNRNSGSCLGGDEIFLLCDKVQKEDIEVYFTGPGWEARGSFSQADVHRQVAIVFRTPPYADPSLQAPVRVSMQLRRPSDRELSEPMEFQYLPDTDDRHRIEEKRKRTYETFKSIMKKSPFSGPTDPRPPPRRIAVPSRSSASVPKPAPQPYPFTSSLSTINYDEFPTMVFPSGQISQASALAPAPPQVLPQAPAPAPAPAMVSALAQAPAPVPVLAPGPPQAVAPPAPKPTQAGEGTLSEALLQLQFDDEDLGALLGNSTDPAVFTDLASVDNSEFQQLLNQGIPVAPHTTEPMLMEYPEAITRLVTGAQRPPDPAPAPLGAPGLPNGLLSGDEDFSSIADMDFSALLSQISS

[5] = biological target: Transcription factor p65 (Homo sapiens) (UniProt Q04206); assay: Reduction in NF-kappa B p65 cytosolic level in TNFalpha-treated Homo sapiens (human) U1 cells after 0.5 to 6 hr by Western blot analysis; type: cell-based
[6] = biological target: Transcription factor p65 (Homo sapiens) (UniProt Q04206); assay: Inhibition of NF-kappa B p65 nuclear translocation in TNFalpha-treated Homo sapiens (human) U1 cells after 0.5 to 6 hr by Western blot analysis; type: cell-based
[7] = biological target: Transcription factor p65 (Homo sapiens) (UniProt Q04206); assay: Binding affinity to NF-kappa B p65 in Homo sapiens (human) U1 nuclear extract after 0.5 to 4 hr by competitive EMSA
MOLT-4 [8] = assay: Inhibition of NF-kappaB-mediated viral replication in Homo sapiens (human) Molt-4 cells infected with X4 tropic HIV1 NL4-3 at 10 uM after 24 hr by RT-PCR analysis; type: cell-based
U1 [9] = assay: Inhibition of NF-kappaB-mediated viral replication in Homo sapiens (human) U1 cells […] at 10 uM after 24 hr by RT-PCR analysis in presence of TNF-alpha; type: cell-based
TZM-bl = assay: Inhibition of NF-kappaB-mediated viral replication in Homo sapiens (human) TZM-bl cells infected with X4 tropic HIV1 NL4-3 compound pre-treated for 2hr before infection measured after 24 hr by luciferase assay; type: cell-based
[10] = system: Human immunodeficiency virus 1; assay: Antiviral activity against X4 tropic Human immunodeficiency virus 1 NL4-3 infected human Molt4 cells assessed as intracellular p24 expression at 10 uM after 7 days by flow cytometry; type: functional, organism-based; conditions: MOLT-4
[11] = system: Human immunodeficiency virus 1; assay: Antiviral activity against X4 tropic Human immunodeficiency virus 1 NL4-3 infected human Molt4 cells assessed as intracellular p24 expression after 4 to 7 days by flow cytometry; type: functional, organism-based; conditions: Human immunodeficiency virus 1, NL4-3, MOLT-4
[12] = system: Human immunodeficiency virus 1; assay: Antiviral activity against X4 tropic Human immunodeficiency virus 1 NL4-3 infected human Molt4 cells assessed as intracellular p24 expression at 10 uM after 4 days by flow cytometry; type: functional, organism-based; conditions: MOLT-4
[13] = system: Human immunodeficiency virus 1; assay: Antiviral activity against Human immunodeficiency virus 1 infected U1 cells assessed as intracellular p24 expression after 24 hr by flow cytometry in presence of TNF-alpha; type: functional, organism-based
[14] = system: Human immunodeficiency virus 1; assay: Antiviral activity against Human immunodeficiency virus 1 infected U1 cells assessed as intracellular p24 expression after 24 hr by flow cytometry in presence of PMA; type: functional, organism-based
[15] = Selectivity index, ratio of IC50 for human MOLT4 cells to EC50 for X4 tropic HIV1 NL4-3 infected in human Molt4 cells; type: toxicity, cell-based, MOLT-4; conditions: read-out: Ratio IC50/EC50
[16] = Selectivity index, ratio of IC50 for PMA-stimulated human U1 cells to EC50 for X4 tropic HIV1 NL4-3 infected in PMA-stimulated human U1 cells; type: toxicity, cell-based; conditions: with X4 tropic HIV1 NL4-3, read-out: Ratio IC50/EC50
[17] = Selectivity index, ratio of IC50 for TNF-alpha-stimulated human U1 cells to EC50 for X4 tropic HIV1 NL4-3 infected in TNF-alpha-stimulated human U1 cells; type: toxicity, cell-based; conditions: with X4 tropic HIV1 NL4-3, read-out: Ratio IC50/EC50
[18] = Cytotoxicity against Homo sapiens (human) TZM-bl cells by MTT assay; type: cell-based
[19] = Human immunodeficiency virus 1, U1, 24 h

inhibition [4]: Active
Activity [5]: inactive
inhibition [6]: Active
Activity [7]: Active
EC50 [11]: 3.41 µM
EC50 [13, 19]: 4.32 µM
EC50 [14, 19]: 3.48 µM
Compound: C/C=C(\C)C(=O)c1c(OC)c2c(c3c(CCC)cc(=O)oc13)OC(C)(C)C=C2
IC50 (MOLT-4 [1]): > 10 µM
IC50 (U1 [2]): 8.44 µM
IC50 (U1 [3]): 8.44 µM
inhibition (MOLT-4 [8]): Active
inhibition (U1 [9]): Active
inhibition (TZM-bl): Active
Activity [10]: Active
Activity [12]: Active
Activity [13]: Dose-dependent effect
Activity [14]: Dose-dependent effect
selectivity ratio [15]: > 2.93
selectivity ratio [16]: 2.43
selectivity ratio [17]: 1.95
IC50 [18]: > 10 µM

Compound: CC(C)C[C@H](NC(=O)[C@H](Cc1ccccc1)NC(=O)c1cnccn1)B(O)O
inhibition (U1 [9]): Active

Compound: CC(C)(C)c1ccc(S(=O)(=O)/C=C/C#N)cc1
inhibition (U1 [9]): Active

Source: ChEMBL document CHEMBL3045162, “Inhibition of HIV-1 replication by a tricyclic coumarin GUT-70 in acutely and chronically infected cells” (Bioorg Med Chem Lett, 2013)
